# According to US5164399A, “Rapamycin pyrazoles” (American Home Products Corporation, priority 1991, dated 1992):
# Like-named read-outs stand apart in the source and are kept apart here.
# Tests used:
# pinch skin graft = test: survival time of pinch skin graft; format: in vivo, male BALB/c mice recipients (male DBA/2 donors); conditions: intraperitoneally
# Method: (§1) Immunosuppressive activity was evaluated in an in vitro standard pharmacological test procedure to measure lymphocyte proliferation (LAF) and in two in vivo standard pharmacological test procedures. The first in vivo procedure was a popliteal lymph node (PLN) test procedure which measured the effect of compounds of this invention on a mixed lymphocyte reaction and the second in vivo procedure evaluated the survival time of a pinch skin graft.
# The second in vivo test procedure is designed to determine the survival time of pinch skin graft from male DBA/2 donors transplanted to male BALB/c recipients. The method is adapted from Billingham R. E. and Medawar P. B., J. Exp. Biol. 28: 385-402, (1951). Briefly, a pinch skin graft from the donor is grafted on the dorsum of the recipient as a homograft, and an autograft is used as control in the same region. […] Untreated recipients serve as rejection control. The graft is monitored daily and observations are recorded until the graft becomes dry and forms a blackened scab. This is considered as the rejection day. The mean graft survival time (number of days±S.D.) of the drug treatment group is compared with the control group.
# [1] = tested on: cells from the thymus of normal BALB/c mice (lymphocyte proliferation); test: comitogen-induced thymocyte proliferation procedure (LAF); format: cell-based; conditions: Mus musculus; for inhibition at 0.1 µM: read-out: LAF percent inhibition at 100 nM
# Method: as §1
# Briefly, cells from the thymus of normal BALB/c mice are cultured for 72 hours with PHA and IL-1 and pulsed with tritiated thymidine during the last six hours. […] Cells are harvested and incorporated; radioactivity is determined. Inhibition of lymphoproliferation is assessed in percent change in counts per minute from non-drug treated controls. The results are expressed as the IC50, expressed in nM, or as the percent inhibition at 100 nM.
# [2] = tested on: popliteal lymph nodes (mixed lymphocyte reaction); test: in vivo popliteal lymph node (PLN) test procedure (mixed lymphocyte reaction); parameters: species or system C3H mice (BALB/c donors)
# Method: as §1
# A mixed lymphocyte reaction (MLR) occurs when lymphoid cells from genetically distinct animals are combined in tissue culture. Each stimulates the other to undergo blast transformation which results in increased DNA synthesis that can be quantified by the incorporation of tritiated thymidine. Since stimulating a MLR is a function of disparity at Major Histocompatibility antigens, an in vivo popliteal lymph node (PLN) test procedure closely correlates to host vs. graft disease. Briefly, irradiated spleen cells from BALB/c donors are injected into the right hind foot pad of recipient C3H mice. […] On Day 3 and Day 4, tritiated thymidine is given i.p., b.i.d. On Day 5, the hind popliteal lymph nodes are removed and dissolved, and radioactivity counted. The corresponding left PLN serves as the control for the PLN from the injected hind foot. Percent suppression is calculated using the non-drug treated animals as allogenic control. […]
# Candida albicans [3] = conditions: cited from earlier work
# organ grafts = conditions: histoincompatible rodents; cited from earlier work
# Candida albicans [4] = conditions: cited from earlier work; remark: listed apart in the source
# [5] = thymocytes, PHA and IL-1, 72 hours, tritiated thymidine, read-out: LAF IC50
SMILES,"Skin Graft (days ± SD), mean graft survival time (pinch skin graft) [days]",inhibition at 0.1 µM [1] [%],"IC50 [1, 5] [nM]","PLN (ratio) ([2]; i.p. daily Day 0 to Day 4, ratio as defined)",antifungal activity in vivo (Candida albicans [3]),prolongation of survival time of organ grafts (organ grafts),"PLN suppression ([2]; 6 mg/kg, p.o.) [%]",antifungal activity in vitro (Candida albicans [4]),IC50 ([1]; read-out: LAF IC50 of rapamycin as a control for Example 1) [nM]
"CO[C@@H]1C(=O)/C(C)=C/[C@@H](C)C(=O)C[C@@H]([C@H](C)C[C@@H]2CC[C@@H](O)[C@H](OC)C2)OC(=O)[C@@H]2CCCCN2C(=O)C(=O)[C@]2(O)O[C@@H](CC[C@H]2C)C[C@H](OC)/C(C)=C/C=C/C=C/[C@@H](C)C[C@@H](C)C1=O [Example 1, 31-Deoxy-31-oxorapamycin]",9.16 ± 0.47,41,84.9,–,–,–,–,–,–
"CO[C@@H]1C(=O)/C(C)=C/[C@@H](C)C(=O)C[C@@H]([C@H](C)C[C@@H]2CCC(=O)[C@H](OC)C2)OC(=O)[C@@H]2CCCCN2C(=O)C(=O)[C@]2(O)O[C@@H](CC[C@H]2C)C[C@H](OC)/C(C)=C/C=C/C=C/[C@@H](C)C[C@@H](C)C1=O [Example 2, 31,42-Dideoxy-31,42-dioxorapamycin]",–,4,–,–,–,–,–,–,–
"COc1c2n[nH]c1[C@H](C)C[C@H](C)/C=C/C=C/C=C(\C)[C@@H](OC)C[C@@H]1CC[C@@H](C)[C@@](O)(O1)C(=O)C(=O)N1CCCC[C@H]1C(=O)O[C@H]([C@H](C)C[C@@H]1CC[C@@H](O)[C@H](OC)C1)CC(=O)[C@H](C)/C=C/2C [Example 3, 33-Deoxo-31-deoxy-31,33-(1-hydrazinyl-2-ylidene)rapamycin]",–,–,205,0.52,–,–,–,–,–
"CO[C@H]1C[C@@H]2CC[C@@H](C)[C@@](O)(O2)C(=O)C(=O)N2CCCC[C@H]2C(=O)O[C@H]([C@H](C)C[C@@H]2CC[C@@H](O)[C@H](OC)C2)CC(=O)[C@H](C)/C=C(\C)[C@@H](O)[C@@H](OC)C(=O)[C@H](C)C[C@H](C)/C=C/C=C/C=C/1C [Rapamycin, rapamycin]",11.66 ± 0.47,94,–,–,antifungal activity,prolong survival time,86,antifungal activity,0.2
